Test results from the METLIN SMRT retention time set (Domingo-Almenara et al. 2019).

Experiment: gradient 5% acetonitrile 3 min, to 50% in 2 min, to 85% in 15 min, held 3 min, 100 µL/min
Conditions: column: Zorbax Extend-C18 2.1 x 50 mm; eluents: water / acetonitrile, 0.1% formic acid
Procedure, shortened: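 Mixtures of ~100 pure standards were chromatographed on a Zorbax Extend-C18 column (2.1 × 50 mm, 1.8 μm) at 100 μL/min using water and acetonitrile, each with 0.1% formic acid. Detection used a quadrupole time-of-flight mass spectrometer in positive and negative ionization mode, and data collection spanned 3 months. Retention time was obtained from adduct peaks picked computationally and each checked manually.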

Structure (SMILES) | RP-LC retention time [s]
Cc1c(C(=O)N2CCCCC2)c(S(=O)(=O)N2CCN(c3ccccn3)CC2)c(C)n1C | 629
O=C(CCc1ccc2nc(-c3ccccc3)[nH]c2c1)N1CCCCCC1 | 642
O=C1COc2cc(S(=O)(=O)N3CCCC3C(=O)N3CCOCC3)c(Cl)cc2N1 (stereo unspecified) | 628
CCc1onc(C)c1C1CCCN1C(=O)c1c(OC)cccc1OC (stereo unspecified) | 898
COc1ccc(OC)c(NC(=O)NCC(c2cccnc2)c2cn(C)c3ccccc23)c1 (stereo unspecified) | 713
O=C(c1ccc(SCCN2CCCCC2)nc1)N1CCN(c2ncccn2)CC1 | 605
Cc1oc(-c2[nH]ncc2C(=O)N2CCCCC2)cc1S(=O)(=O)N1CCC(C)CC1 | 809
CCOc1ccc(NC(=O)N2C[C@@H](F)C[C@H]2C(=O)N2CCc3ccccc3C2)cc1 | 776
Cc1ccc(F)cc1NC(=O)CSc1ccc(N2CCCC(C(=O)NC3CC3)C2)nn1 (stereo unspecified) | 664
COc1nn(C)cc1C(=O)Nc1nc(-c2cc(Cl)sc2Cl)cs1 | 1210
CC(C)n1nc2c(S(=O)(=O)N3CCCCC3)cccn2c1=O | 803
CCCCNC(=O)C1CCCN(C(=O)Nc2ccc(S(=O)(=O)N(CC)CC)s2)C1 (stereo unspecified) | 849
CCCCNC(=O)C1CCCN(c2cc(=O)n(C)c(=O)n2CC)C1 (stereo unspecified) | 759
COc1ccc(CN2CC[C@@H]3CN(S(C)(=O)=O)[C@@H]3C2)cc1C | 617
CCOC(=O)c1c(C)c(CCC(=O)N2CCN(C(=O)c3ccco3)CC2)n(CC)c1C | 778
CC1CCc2c(N3CCC(O)CC3)c(F)cc3c(=O)c(C(=O)O)cn1c23 (stereo unspecified) | 709
COCCN1C(=O)c2ccccc2C(C(=O)NCCCN2C(C)CCCC2C)C1c1cccs1 (stereo unspecified) | 633
Cc1ccccc1CC(=O)NC(CC(C)C)C(=O)Nc1nc2ccccc2[nH]1 (stereo unspecified) | 763
COc1ccc(CN2C[C@@H]3C(=O)N(CCCN4CCCC4=O)C(=O)[C@@H]3C2)cc1OC | 575
O=C(CC1CCCC1)NCCC1CCN(C(=O)Nc2cc(F)cc(F)c2)CC1 | 905
COc1ccc(F)cc1S(=O)(=O)N1C[C@@H](F)C[C@H]1C(=O)N1CCc2ccccc2C1 | 881
Cc1ccccc1S(=O)(=O)Cc1ccc(C(=O)N2CCN(c3ccccn3)CC2)o1 | 613
CC1=C(c2ccccc2)S(=O)(=O)N=C1N1CCCN(C(=O)Cc2ccsc2)CC1 | 721
Cc1sc(-c2cc(C(F)(F)F)on2)cc1S(=O)(=O)NCCc1cccs1 | 1140

Structure (SMILES) | RP-LC retention time [s]
COc1ccc(OC)c(CNC(=O)C2CCCN(c3nccnc3Sc3ccccc3)C2)c1 (stereo unspecified) | 1000
CCOC(=O)Cc1csc(NC(=O)CSc2nc(C)cc(C)n2)n1 | 728
CCC(CC)C(=O)N1CCCC(Cn2c(C3CC3)nc3cccnc32)C1 (stereo unspecified) | 682
NS(=O)(=O)c1ccc(NC(=O)CN2C(=O)S/C(=C\C=C\c3ccccc3)C2=O)cc1 | 808
CCC(=O)N1CCC2(CC1)CC(CC(=O)N(C)C)CCO2 (stereo unspecified) | 598
CCOC(=O)CC1(NC(=O)NCC(=O)N2CCc3ccccc32)CCCCC1 | 885
COc1ccccc1NS(=O)(=O)c1cc(-c2cc(C(F)(F)F)on2)sc1C | 1110
COc1ccc(N2CCN(C(=O)C3CCCN(c4cc(=O)n(C)c(=O)n4C)C3)CC2)cc1 (stereo unspecified) | 696
O=C(c1ccoc1)N1CCC(OCc2nc(C3CC3)no2)CC1 | 719
N#Cc1cccc(C(=O)NC2CCN(c3cc(-c4cccs4)[nH]n3)C2)c1 (stereo unspecified) | 701
O=C(NCc1ccc(Cl)cc1)C(=O)NCC1CCCO1 (stereo unspecified) | 762
C(#Cc1ccccc1)CN1CCN(c2ccccn2)CC1 | 553
COC(=O)c1cccc(NC(=O)C2CC(=O)N(c3ccccc3)C2)c1 (stereo unspecified) | 725
Cc1ccc(-c2ccc(N3CCCC(C(=O)N4CCC(C)CC4)C3)nn2)cc1C (stereo unspecified) | 792
O=S1(=O)C[C@H](N2CCN(Cc3ccccc3)CC2)[C@@H](S(=O)(=O)c2ccc(F)cc2)C1 | 647
COCC(=O)Nc1ccc(N2CCC(N3CCCCC3)CC2)cc1C(=O)O | 654
O=C(O)[C@H]1O[C@H](Oc2cc3oc(-c4ccccc4)cc(=O)c3c(O)c2O)[C@H](O)[C@@H](O)[C@@H]1O | 658
CCOc1ccccc1-c1nn2c(-c3cccnc3)nnc2s1 | 1040
CCCNc1cc(N2CCC(CCC(=O)Nc3ccc(OC)cc3)CC2)ncn1 | 682
CCn1c(C(=O)N2CCOCC2)cc2c(-c3cccs3)nn(-c3ccccc3)c21 | 944
COC(=O)c1ccc(NC(=O)N2[C@H]3CC[C@@H]2c2cnc(-c4ccc(F)cc4)nc2C3)cc1 | 993
CCS(=O)(=O)N1CCC2(CC1)C(OC)CN2c1cccc(F)c1 (stereo unspecified) | 965
CN(C)C(=O)c1ccc2oc(CN3CCN(C(=O)NC(C)(C)C)CC3)nc2c1 | 597

Further lines, results first:

RP-LC retention time [s] | Structure (SMILES)
611 | O=C(NCCN1CCCC1)c1nc2ccccn2c1-c1ccc(F)cc1
867 | O=C(Cn1ccn2nc(-c3ccccc3)c(CO)c2c1=O)Nc1cc(Cl)cc(Cl)c1
885 | Cc1cc(=O)n(CC(=O)Nc2ccc(Br)cc2)c(N2CCc3ccccc3C2)n1
587 | Cc1nc(Nc2ccc(NC(=O)c3ccc(Br)o3)cc2)cc(-n2ccnc2)n1
667 | Cc1[nH]c2ccc(-c3nnc(SCC(=O)NCCc4nc5ccccc5[nH]4)o3)cc2c1C
769 | O=C(CSc1nnc(-c2csc3c2CCCC3)o1)Nc1ccccc1
903 | CC(C)n1nccc1-c1nnc(NC(=O)C(C)(C)Oc2ccc(Cl)cc2)o1
697 | Cc1cccc2nc(-c3c(F)cccc3Cl)c(Nc3ccc4c(c3)OCO4)n12
604 | Cc1ccc(CSc2nccc3c2ccn3CC(=O)N2CCN(c3ccccn3)CC2)cc1
1150 | CCOC(=O)c1ccc(NC(=O)N2CCc3cn(CC)c4cccc(c34)C2)cc1
688 | Cc1ccc2c(Nc3cccc(C(C)C)c3)c(C(=O)N3CCSCC3)cnc2n1
1140 | CCN1C(=O)COc2ccc(-c3noc(C4(c5ccc(OC)cc5)CC4)n3)cc21
863 | O=C(Nc1ccc2c(c1)OCCO2)c1cc2n(n1)CCCN(Cc1ccc(F)cc1)C2=O
723 | O=C(Nc1ccc(F)cc1)N1CCC(N2CCN(Cc3ccccc3)C(=O)C2=O)CC1
896 | Fc1ccc(C2Cn3nnc(-c4nc(-c5cccnc5)no4)c3CO2)cc1 (stereo unspecified)
1020 | O=C(c1ccc(Br)o1)N1CCN(c2ccc(-c3noc(C4CC4)n3)cc2)CC1
698 | CCn1cnc2ccc(-c3noc(-c4ccc(OC)c(OC)c4)n3)cc21
1200 | Cc1ccc(-c2noc(Cn3ncn4nc(-c5ccccc5Cl)cc4c3=O)n2)cc1
1090 | Cc1ccc(-c2ccc(-n3nc(C)c(S(=O)(=O)NCc4ccccc4)c3C)nn2)cc1
992 | CCn1cc(-c2nc(CC(=O)Nc3ccc(F)cc3F)cs2)c2cccnc21

RP-LC retention time [s] | Structure (SMILES)
566 | Cc1ccnc(C(=O)Nc2ccc(Nc3cc(N4CCOCC4)nc(C)n3)cc2)n1
946 | CCOC(=O)c1noc2ncnc(NCCN(CC)c3cccc(C)c3)c12
894 | O=c1ncn2nc(Sc3ccc(F)cc3F)ccc2c1-c1c(Cl)cccc1Cl
1140 | Cc1ccc(-c2noc(CN3C(=O)COc4cc(Cl)ccc43)n2)cc1
1070 | CCOC(=O)c1cccc(NS(=O)(=O)c2c(C)nn(-c3ccc(-c4ccccc4)nn3)c2C)c1
916 | O=C1CC(c2noc(-c3ccccc3F)n2)CN1c1ccc(F)cc1 (stereo unspecified)
881 | COC(=O)c1ccc(NS(=O)(=O)c2ccc3c(c2)C(=O)N(C)c2ncccc2O3)cc1
1130 | CC1=NS(=O)(=O)N(Cc2ccccc2)C=C1C(=O)OCc1noc(-c2cccc(F)c2)n1
607 | Cc1ccc(NC(=O)NC2CCN(c3cc(C)cc(C)c3)C2=O)cc1 (stereo unspecified)
896 | Cc1ccc(C(=O)N2CCCC(COc3ccc(C(=O)NC(C)C)cc3)C2)cc1F (stereo unspecified)
710 | COc1ccc(OCc2nnc3sc(-c4ccncc4)nn23)cc1
760 | Cc1ccc(CN2C[C@@H]3C(=O)N(Cc4ccc5c(c4)OCO5)C(=O)[C@@H]3C2)cc1
712 | CCC(=O)N1CCc2cc(-c3ccc(C(=O)NCCCN4CCCC4=O)cc3)ccc21
720 | CCn1cc(CN2CCC(C(=O)NCc3ccc(C)cc3)CC2)c2cc(OC)ccc21
661 | CCOc1ccc(Nc2c(C(=O)N3CCC(C)CC3)cnc3nc(C)ccc23)cc1
964 | Cc1cc(F)ccc1NS(=O)(=O)c1ccc(-c2c(C)noc2C)cc1
620 | COc1cccc(C2CC(c3ccc(Br)cc3)=NC3(CCN(C)CC3)N2)c1O (stereo unspecified)
1040 | O=C(Cc1ccccc1)NCc1nc(-c2ccc(-c3csc(C4CC4)n3)cc2)no1
688 | CC(=O)N1CCc2cc(N3CC(C(=O)Nc4ccc(F)cc4F)CC3=O)ccc21 (stereo unspecified)
